Reference: PubChem BioAssay AID218 (DTP/NCI, 2004)
Where “and” joins values, the source holds several entries; their conditions need not be identical. Identical values can stand only once.

Tested on: C57BL/6 mice, Adenocarcinoma 755 sc, tumor weight T/C
Experiment: NCI In Vivo Anticancer Drug Screen. Data for tumor model Adenocarcinoma 755 (subcutaneous) in C57BL/6 mice
Settings: endpoint: mean tumor weight, higher = larger tumour
Experimental: The antitumor activity of compounds was measured in mice bearing transplantable tumors. Survival or tumor size were measured and the results are expressed as the measurement made in the treated group (T) divided by the measurement made in the vehicle treated control group (C). The tumor model used in this assay is Adenocarcinoma 755 (subcutaneous) in C57BL/6 mice

[1] = dose: 50.0 mg/kg/injection, schedule: Q02DX006 (ip), vehicle: other

Structure (SMILES): [I][Hg][CH2]C1OCCOC1[CH2][Hg][I] (stereo unspecified)
- T/C (dose: 4.0 mg/kg/injection, schedule: Q01DX011 (ip), vehicle: carboxymethylcellulose (CMC)): 84 % of control
- T/C (dose: 8.0 mg/kg/injection, schedule: Q01DX011 (ip), vehicle: carboxymethylcellulose (CMC)): 46 % of control
- T/C (dose: 16.0 mg/kg/injection, schedule: Q01DX011 (ip), vehicle: carboxymethylcellulose (CMC)): 34 % of control
- T/C (dose: 32.0 mg/kg/injection, schedule: Q01DX011 (ip), vehicle: carboxymethylcellulose (CMC)): 44 % of control

Structure (SMILES): CC(=O)OCC(=O)[C@@]1(O)CC[C@H]2[C@@H]3CCC4=CC(=O)CC[C@]4(C)[C@H]3C(=O)C[C@@]21C
- T/C (dose: 40.0 mg/kg/injection, schedule: Q01DX011 (sc), vehicle: saline): 24 % of control
- T/C (dose: 45.0 mg/kg/injection, schedule: Q01DX011 (sc), vehicle: saline): 43 % of control
- T/C (dose: 50.0 mg/kg/injection, schedule: Q01DX011 (sc), vehicle: saline): 16 % of control
- T/C (dose: 60.0 mg/kg/injection, schedule: Q01DX011 (sc), vehicle: saline): 15 % of control and 39 % of control
- T/C (dose: 100.0 mg/kg/injection, schedule: Q01DX011 (sc), vehicle: saline): 8 % of control

Structure (SMILES): Nc1nc(=S)c2[nH]cnc2[nH]1
- T/C (dose: 0.06 mg/kg/injection, schedule: Q01DX011 (ip), vehicle: carboxymethylcellulose (CMC)): 81 % of control
- T/C (dose: 0.13 mg/kg/injection, schedule: Q01DX011 (ip), vehicle: carboxymethylcellulose (CMC)): 111 % of control
- T/C (dose: 0.25 mg/kg/injection, schedule: Q01DX011 (ip), vehicle: carboxymethylcellulose (CMC)): 18 % of control
- T/C (dose: 0.5 mg/kg/injection, schedule: Q01DX011 (ip), vehicle: carboxymethylcellulose (CMC)): 7 % of control and 8 % of control
- T/C (dose: 0.5 mg/kg/injection, schedule: Q01DX011 (ip), vehicle: saline): 3 % of control
- T/C (dose: 1.0 mg/kg/injection, schedule: Q01DX011 (ip), vehicle: carboxymethylcellulose (CMC)): 7 % of control

Structure (SMILES): S=c1[nH]c(=S)c2[nH]cnc2[nH]1
- T/C (dose: 100.0 mg/kg/injection, schedule: Q01DX011 (ip), vehicle: saline): 13 % of control
- T/C (dose: 200.0 mg/kg/injection, schedule: Q01DX011 (ip), vehicle: saline): 7 % of control

Structure (SMILES): O=c1[nH]cc(Br)c(=O)[nH]1
- T/C [1]: 56 % of control
- T/C (dose: 75.0 mg/kg/injection, schedule: Q02DX006 (ip), vehicle: other): 71 % of control

Structure (SMILES): O=C(O)c1[nH]c(=O)[nH]c(=O)c1Br
- T/C (dose: 50.0 mg/kg/injection, schedule: Q01DX011 (ip), vehicle: saline): 54 % of control

Structure (SMILES): O=C([O][Hg][CH2]C1COC([CH2][Hg][O]C(=O)c2ccccc2)CO1)c1ccccc1 (stereo unspecified)
- T/C (dose: 16.0 mg/kg/injection, schedule: Q01DX009 (ip), vehicle: saline): 82 % of control
- T/C (dose: 32.0 mg/kg/injection, schedule: Q01DX009 (ip), vehicle: saline): 77 % of control
- T/C (dose: 32.0 mg/kg/injection, schedule: Q01DX010 (ip), vehicle: saline): 48 % of control

Structure (SMILES): NC(=S)N/N=C/c1ccc(N)cc1
- T/C (dose: 35.0 mg/kg/injection, schedule: Q02DX006 (ip), vehicle: other): 86 % of control
- T/C (dose: 40.0 mg/kg/injection, schedule: Q02DX006 (ip), vehicle: other): 85 % of control
- T/C [1]: 87 % of control
- T/C (dose: 60.0 mg/kg/injection, schedule: Q02DX006 (ip), vehicle: other): 70 % of control
- T/C (dose: 70.0 mg/kg/injection, schedule: Q02DX006 (ip), vehicle: other): 77 % of control

Structure (SMILES): c1ccc2nc(-c3cc4ccccc4s3)ccc2c1
- T/C (dose: 300.0 mg/kg/injection, schedule: Q01DX011 (ip), vehicle: saline): 11 % of control

Structure (SMILES): NC(=O)c1ccc(N)nc1
- T/C (dose: 1.0 mg/kg/injection, schedule: Q01DX011 (ip), vehicle: saline): 92 % of control and 94 % of control
- T/C (dose: 1.5 mg/kg/injection, schedule: Q01DX011 (ip), vehicle: saline): 52 % of control
- T/C (dose: 2.0 mg/kg/injection, schedule: Q01DX011 (ip), vehicle: saline): 48 % of control

Structure (SMILES): S=c1nc[nH]c2nc[nH]c12.[Cd]
- T/C (dose: 0.1 mg/kg/injection, schedule: Q01DX011 (ip), vehicle: saline): 60 % of control
- T/C (dose: 0.2 mg/kg/injection, schedule: Q01DX011 (ip), vehicle: saline): 76 % of control
- T/C (dose: 0.4 mg/kg/injection, schedule: Q01DX011 (ip), vehicle: saline): 60 % of control
- T/C (dose: 0.8 mg/kg/injection, schedule: Q01DX011 (ip), vehicle: saline): 49 % of control
